Results reported in patent US20130023585A1, “Neuraminidase Inhibitors” (TSRL, INC., priority 2010, published 2013).
Like-named read-outs stand apart in the source and are kept apart here. Marks after values point to notes of the source that are not given here.

Tests used:
[1] = test system: Influenza A/NWS/33 (H1N1); type: in vivo, BALB/c mice; settings: for Survivors/Total: twice a day for 5 days, observed 21 days
[2] = mouse, in vivo, 10 mg/kg/day
[3] = cited from earlier work
Victoria/3/75 (H3N2) = assay: microbe, parasite or virus in culture; type: cell-based; settings: Influenza A virus, read-out: 50% effective concentration (EC50)
Flu B Florida/4/2006 = assay: microbe, parasite or virus in culture; type: cell-based; settings: unidentified influenza virus, read-out: 50% effective concentration (EC50)
NWS/33 (H1N1) = assay: microbe, parasite or virus in culture; type: cell-based; settings: Influenza A virus, read-out: 50% effective concentration (EC50)
Sichuan/379/99 = assay: microbe, parasite or virus in culture; type: cell-based; settings: unidentified influenza virus, read-out: 50% effective concentration (EC50)
Brisbane/59/2007 (H1N1) = assay: microbe, parasite or virus in culture; type: cell-based; settings: Influenza A virus, read-out: 50% effective concentration (EC50)
influenza virus = settings: versus oseltamivir carboxylate; cited from earlier work
Brisbane/10/2007 (H3N2) = assay: microbe, parasite or virus in culture; type: cell-based; settings: Influenza A virus, read-out: 50% effective concentration (EC50)
[4] = test system: California/04/2009 (H1N1); assay: microbe, parasite or virus in culture; type: cell-based; settings: Influenza A virus, read-out: 50% effective concentration (EC50)
[5] = test system: Solomon Islands/03/2006 (H1N1); assay: microbe, parasite or virus in culture; type: cell-based; settings: Influenza A virus, read-out: 50% effective concentration (EC50)
[6] = test system: Flu A Duck/MN/1525/81 (H5N1); assay: microbe, parasite or virus in culture; type: cell-based; settings: Influenza A virus, H5N1, MDCK, read-out: 50% effective concentration (EC50)
in vivo = settings: mouse
[7] = test system: Flu A Vietnam/1203/2004 (H5N1) × A/Ann Arbor/6/60 (H1N1 core genes); assay: microbe, parasite or virus in culture; type: cell-based; settings: Influenza A virus, MDCK, read-out: 50% effective concentration (EC50)
[8] = for Plasma concentration of Zanamivir: iv dose 1 mg/kg

## CCC(CC)OC1C=C(C(=O)OC(OC(=O)C(N)C(C)C)c2ccccc2)CC(NC(=N)N)C1NC(C)=O (mixture of isomers) [GOC-Benzyl-Val]
mouse, in vivo, iv, 1 mg/kg
  AUC: 867 ± 110 ng·h/mL
  CL: 31 mL/h
  T1/2: 1.15 h
  Vz: 50.8 mL
mouse, in vivo, po, 10 mg/kg
  AUC: 1171 ± 357 ng·h/mL
  CL: 195 mL/h
  Cmax: 192 ± 48 ng/mL
  T1/2: 7.14 h
  Tmax: 1.0 ± 0.0 h
  Vz: 2014 mL

## CCOC(=O)C1=C[C@@H](OC(CC)CC)[C@H](NC(C)=O)[C@@H](N)C1 [Oseltamivir]
[1]; 0.1 mg/kg/day
  MDD ± SD (mean day of death of mice that died prior to day 21): 9.7 ± 1.6
  protective from the lethal infection: ineffective
[1]; 0.1 mg/kg/day per oral
  Survivors/Total: 0/10
[1]; 1 mg/kg/day
  protective from the lethal infection: 100%
  weight loss during the infection (FIG. 2): lost minimal weight
[1]; 1 mg/kg/day per oral
  Survivors/Total: 10/10**
[1]; 10 mg/kg/day
  protective from the lethal infection: 100%
[1]; 10 mg/kg/day per oral
  Survivors/Total: 10/10**
[2]; BALB/c
  Survivors/Total: 5/5
[2]
  Mean Weight Change Day 5: −0.3 grams
  Mean Weight Change Day 5, % of initial body weight (in parenthesis): −1.6%
  Mean Weight Change, day 7: −0.1 grams
  Mean Weight Change, day 7, % of initial body weight (in parenthesis): −0.5%

## CCOC(=O)C1=C[C@@H](OC(CC)CC)[C@H](NC(C)=O)[C@@H](NC(=N)N)C1
[3]; oral
  oral bioavailability: approximately 2%

## CCC(CC)O[C@@H]1C=C(C(=O)O)C[C@H](NC(=N)N)[C@H]1NC(C)=O [GOC, 4-guanidinio oseltamivir carboxylate]
mouse, in vivo, po, 10 mg/kg
  AUC: 327 ± 98 ng·h/mL
  Cmax: 73 ± 30 ng/mL
  T1/2: 1.65 h
Victoria/3/75 (H3N2); H3N2, MDCK cells, 3 to 4 days
  EC50: 38 nM
Flu B Florida/4/2006; MDCK cells, 3 to 4 days
  EC50: 460 nM
NWS/33 (H1N1); H1N1, MDCK cells, 3 to 4 days
  EC50: < 32 nM
[3]; oral
  oral bioavailability: ~4.0%
Sichuan/379/99; MDCK cells, 3 to 4 days
  EC50: > 3200 nM
Brisbane/59/2007 (H1N1); H1N1, MDCK cells, 3 to 4 days
  EC50: 4 nM
[1]; 0.1 mg/kg/day
  MDD ± SD (mean day of death of mice that died prior to day 21): 9.0 ± 1.0
  protective from the lethal infection: not active
[1]; 0.1 mg/kg/day per oral
  Survivors/Total: 0/10
[1]; 1 mg/kg/day
  MDD ± SD (mean day of death of mice that died prior to day 21): 9.8 ± 1.2
  protective from the lethal infection: not active
[1]; 1 mg/kg/day per oral
  Survivors/Total: 1/10
[1]; 10 mg/kg/day
  protective from the lethal infection: 100%
  weight loss during the infection (FIG. 2): Some weight loss
[1]; 10 mg/kg/day per oral
  Survivors/Total: 10/10**
[2]
  Mean Weight Change Day 5: −0.3 grams
  Mean Weight Change Day 5, % of initial body weight (in parenthesis): −2.1%
  Mean Weight Change, day 7: −0.2 grams
  Mean Weight Change, day 7, % of initial body weight (in parenthesis): −1.0%
Influenza virus
  times more potent in tissue culture of influenza virus replication: 10 times
Brisbane/10/2007 (H3N2); H3N2, MDCK cells, 3 to 4 days
  EC50: > 320 nM
[4]; H1N1, MDCK cells, 3 to 4 days
  EC50: 16 nM
[5]; H1N1, MDCK cells, 3 to 4 days
  EC50: 4.2 nM
[6]
  EC50: 1.2 nM
In vivo; 10 mg/kg, BA (bioavailability of GOC)
  bioavailability: 4.3%
In vivo; iv, 1 mg/kg
  Vd: 0.0678 L
  clearance: 0.883 mL/min
In vivo; iv, 1 mg/kg, mice, GOC in plasma
  AUC: 541 ± 229 ng·h/mL
In vivo; iv, 1 mg/kg, T1/2, mice
  half-life: 0.88 h
In vivo; po, 10 mg/kg
  AUC: 232 ± 43 ng·h/mL
  Tmax: 3 ± 1.2 h
In vivo; po, 10 mg/kg, Cmax
  Cmax: 43 ± 29 ng/mL
In vivo; po, 10 mg/kg, T1/2
  half-life: 1.21 h
In vivo; po, 10 mg/kg, mice, PO (fasted), GOC in plasma
  Tmax: 1.3 ± 1 h
[7]
  EC50: 0.28 nM

## CCC(CC)O[C@@H]1C=C(C(=O)O)C[C@H](N)[C@H]1NC(C)=O [Oseltamivir Carboxylate, Oseltamivir carboxylate]
Victoria/3/75 (H3N2); H3N2, MDCK
  EC50: > 320 nM
Flu B Florida/4/2006; MDCK
  EC50: > 3200 nM
NWS/33 (H1N1); H1N1, MDCK
  EC50: 580 nM
[3]; oral
  oral bioavailability: ~4.0%
Sichuan/379/99; MDCK
  EC50: > 3200 nM
Brisbane/59/2007 (H1N1); H1N1, MDCK
  EC50: > 320 nM
Brisbane/10/2007 (H3N2); H3N2, MDCK
  EC50: > 320 nM
[4]; H1N1, MDCK
  EC50: 300 nM
[5]; H1N1, MDCK
  EC50: > 320 nM
[6]
  EC50: 150 nM
[7]
  EC50: 2.8 nM

## CC(=O)N[C@H]1[C@H]([C@H](O)[C@H](O)CO)OC(C(=O)OC(OC(=O)[C@H](N)C(C)C)C(C)C)=C[C@@H]1NC(=N)N (stereo partly drawn) [ZAN-Isp-Val]
[8]; Oral, fasted mice, Zanamivir in plasma
  AUC: 2177 (ng/ml) × hr
[8]; fasted animals
  absorption after oral dosing: completely absorbed

## CC(=O)N[C@H]1[C@H]([C@H](O)[C@H](O)CO)OC(C(=O)O)=C[C@@H]1N=C(N)N [Zanamivir]
[8]; 0.03 hours
  Plasma concentration of Zanamivir: 4018.3 ng/mL
[8]; 0.08 hours
  Plasma concentration of Zanamivir: 2487.5 ng/mL
[8]; 0.25 hours
  Plasma concentration of Zanamivir: 633.8 ng/mL
[8]; 0.50 hours
  Plasma concentration of Zanamivir: 212.0 ng/mL
[8]; 1.00 hours
  Plasma concentration of Zanamivir: 78.6 ng/mL
[8]; 2.00 hours
  Plasma concentration of Zanamivir: 14.0 ng/mL
[8]; mouse, in vivo, iv, 1 mg/kg
  AUC: 202.4 (ng/ml) × hr
[3]; in vivo, po
  oral bioavailability: about 2%

## CCC(CC)OC1C=C(C(=O)OC(C)OC(=O)C(N)C(C)C)CC(NC(=N)N)C1NC(C)=O (mixture of isomers) [GOC-Me-Val]
mice, IV, 1 mg/kg
  T1/2: 1.05 h
mouse, in vivo, iv, 1 mg/kg
  AUC: 730 ± 60 ng·h/mL
  CL: 39 mL/h
  Vz: 59.5 mL
mouse, in vivo, po, 10 mg/kg
  AUC: 3205 ± 577 ng·h/mL
  CL: 140 mL/h
  Cmax: 561 ± 235 ng/mL
  Vz: 276 mL
[1]; 0.1 mg/kg/day
  MDD ± SD (mean day of death of mice that died prior to day 21): 10.0 ± 1.3
  protective from the lethal infection: inactive
[1]; 0.1 mg/kg/day per oral
  Survivors/Total: 0/10
[1]; 1 mg/kg/day
  MDD ± SD (mean day of death of mice that died prior to day 21): 10.7 ± 0.6
  protective from the lethal infection: 70%
  weight loss during the infection (FIG. 2): Severe weight loss
[1]; 1 mg/kg/day per oral
  Survivors/Total: 7/10**
[1]; 10 mg/kg/day
  protective from the lethal infection: 100%
[1]; 10 mg/kg/day per oral
  Survivors/Total: 10/10**
[2]
  Mean Weight Change Day 5: −0.2 grams
  Mean Weight Change Day 5, % of initial body weight (in parenthesis): −0.5%
  Mean Weight Change, day 7: −0.3 grams
  Mean Weight Change, day 7, % of initial body weight (in parenthesis): −1.6%
  Survivors/Total: 5/5
